Patent US9744152B2, “Vitamins C and K for treating polycystic diseases” (IC-MedTech Corporation, priority 2010, dated 2017)
Marks after values point to notes of the source that are not given here.

Assays:
PCK rats = assay: Body, liver and kidney weights in PCK rats after 6 weeks of treatment; format: in vivo, rat; conditions: for Kidney Weight / Kidney Weight (% bw) / Liver Weight / Liver Weight (% bw): 6 weeks in drinking water; for Body Weight: 6 weeks in drinking water (VC 15 g/L; VK3 0.15 g/L; APATONE® 15 g/L + 0.15 g/L)
Source text: (§1) Thirty seven PCK rats (20 females and 17 males) at age of 3 weeks were divided into four groups: (i) vitamin C (VC) treatment group: 5 females and 4 males; (ii) vitamin K3 (VK3) treatment group: 5 females and 4 males; (iii) APATONE® treatment group: 6 females and 5 males; and (iv) control group: 4 females and 4 males. Similarly, twenty Pkd2^WS25/− mice (12 females and 8 males) at age of 5 months were divided into four groups: (i) vitamin C (VC) treatment group: 3 females; (ii) vitamin K3 (VK3) treatment group: 2 females and 2 males; (iii) APATONE® treatment group: 4 females and 3 males; and (iv) control group: 3 females and 3 males.
(§2) The VC treatment groups were given vitamin C at a concentration of 15 g/L in drinking water. The VK3 treatment groups were given vitamin K3 at a concentration of 0.15 g/L in drinking water. The APATONE® treatment groups were given vitamins C and K3 at concentrations of 15 g/L and 0.15 g/L, respectively, in drinking water. The control groups were given drinking water only. Rats or mice in each group were allowed to drink freely.
(§3) The rats and mice were sacrificed after 6 weeks of treatment. The following parameters were analyzed: body weights, liver and kidney weights, serum biochemistry, renal and hepatic cystic and fibrotic areas, apoptotic and proliferation indices, expression of Cdc25A and its down-stream targets. […]

Pkd2^WS25/− mice = assay: Body, liver and kidney weights in Pkd2^WS25/− mice after 6 weeks of treatment; format: in vivo, mouse; conditions: for Kidney Weight / Kidney Weight (%) / Liver Weight / Liver Weight (%): 6 weeks in drinking water; for Body Weight: 6 weeks in drinking water (VC 15 g/L; VK3 0.15 g/L; APATONE® 15 g/L + 0.15 g/L)
Source text: as §1, §2, §3

Compound	Kidney Weight (PCK rats; Female)	Kidney Weight (% bw) (PCK rats; Female)	Liver Weight (PCK rats; Female)	Liver Weight (% bw) (PCK rats; Female)	Body Weight (PCK rats; Female)	Body Weight (g) Change vs Ctrl (PCK rats; Female)	Kidney Weight (% bw) Change vs Ctrl (PCK rats; Female)	Kidney Weight (g) Change vs Ctrl (PCK rats; Female)	Liver Weight (% bw) Change vs Ctrl (PCK rats; Female)	Liver Weight (g) Change vs Ctrl (PCK rats; Female)	Kidney Weight (PCK rats; Male)	Kidney Weight (% bw) (PCK rats; Male)	Liver Weight (PCK rats; Male)	Liver Weight (% bw) (PCK rats; Male)	Body Weight (PCK rats; Male)	Body Weight (g) Change vs Ctrl (PCK rats; Male)	Kidney Weight (% bw) Change vs Ctrl (PCK rats; Male)	Kidney Weight (g) Change vs Ctrl (PCK rats; Male)	Liver Weight (% bw) Change vs Ctrl (PCK rats; Male)	Liver Weight (g) Change vs Ctrl (PCK rats; Male)	also measured
O=C1O[C@H]([C@@H](O)CO)C(O)=C1O [VC, L-ascorbic acid]	3.88 ± 0.19 g	1.47 ± 0.11 % bw	16.6 ± 1.3 g	6.36 ± 0.23 % bw	261 ± 10 g	−3.3%	−0.7%	−2.8%	0.8%	−2.8%	4.95 ± 0.18 g	1.19 ± 0.13 % bw	23.3 ± 1.8 g	5.61 ± 0.14 % bw	416 ± 13 g	0.8%	0%	1.2%	−1.2%	−0.4%	Kidney Weight (Pkd2^WS25/− mice): 0.46 ± 0.04 g; Kidney Weight (%) (Pkd2^WS25/− mice): 1.76 ± 0.16%; Liver Weight (Pkd2^WS25/− mice): 2.29 ± 0.43 g; Liver Weight (%) (Pkd2^WS25/− mice): 9.29 ± 2.01%; Body Weight (Pkd2^WS25/− mice): 26.7 ± 2.0 g; Body Weight (g) Change vs Ctrl (Pkd2^WS25/− mice): 1.5%; Kidney Weight (% bw) Change vs Ctrl (Pkd2^WS25/− mice): −6.7%; Kidney Weight (g) Change vs Ctrl (Pkd2^WS25/− mice): −6.1%; Liver Weight (% bw) Change vs Ctrl (Pkd2^WS25/− mice): 15.4%; Liver Weight (g) Change vs Ctrl (Pkd2^WS25/− mice): 8.0%
CC1=CC(=O)c2ccccc2C1=O [VK3, menadione]	3.78 ± 0.09 g	1.36 ± 0.13 % bw	15.5 ± 0.6 g	5.60 ± 0.13 % bw	276 ± 9 g	2.2%	−8.1%*	−5.2%*	−11.3%*	−9.2%*	4.57 ± 0.13 g	1.11 ± 0.11 % bw	20.8 ± 0.5 g	5.12 ± 0.09 % bw	408 ± 16 g	−1.1%	−6.7%*	−6.5%*	−9.8%*	−10.9%*	Kidney Weight (Pkd2^WS25/− mice): 0.42 ± 0.01 g; Kidney Weight (%) (Pkd2^WS25/− mice): 1.53 ± 0.05%; Liver Weight (Pkd2^WS25/− mice): 1.64 ± 0.15 g; Liver Weight (%) (Pkd2^WS25/− mice): 5.87 ± 0.36%; Body Weight (Pkd2^WS25/− mice): 27.9 ± 1.9 g; Body Weight (g) Change vs Ctrl (Pkd2^WS25/− mice): 5.8%; Kidney Weight (% bw) Change vs Ctrl (Pkd2^WS25/− mice): −19.0%*; Kidney Weight (g) Change vs Ctrl (Pkd2^WS25/− mice): −14.3%*; Liver Weight (% bw) Change vs Ctrl (Pkd2^WS25/− mice): −27.1%*; Liver Weight (g) Change vs Ctrl (Pkd2^WS25/− mice): −22.6%*
